# Reference: patent US20250178051A1, “METHODS OF CONTROLLING MICROBIOLOGICAL PROCESSES FOR IN SITU CONTAMINANT TREATMENT” (priority 2022, published 2025)
# Tests used:
# [1] = test system: Mycobacterium austroafricanum JOB5; assay: TCE cometabolism and biomass production of pure culture after acetylene exposure; format: cell-based; conditions: for TCE consumption rate: 5% v/v acetylene, 50 μM TCE
# Description: (§1) Aerobic cometabolism of TCE is a viable methodology for TCE removal in large diffuse contaminant plumes. A pure culture of the known aerobic cometabolic TCE degrader, Mycobacterium austroafricanum JOB5 (formerly known as Mycobacterium vaccae JOB5) and a mixed culture enriched from an uncontaminated soil in mineral medium using propane and oxygen as growth substrates were used to test the efficiency of acetylene in reducing biomass growth rate (e.g., a proxy for bioclogging). The mixed culture was created through serial transfers from the original soil microcosms.
# (§2) The pure and mixed cultures were then exposed to 50 μM TCE to verify their capacity to aerobically cometabolically degrade TCE. Once their capability to degrade TCE was verified, both cultures were grown in 2 L bottles and fed oxygen and propane until the optical density at 600 nm stabilized at ˜0.2 for multiple days. Then, the two cultures were exposed to acetylene at 5% v/v for varying lengths of time (no exposure (0), 1, 2, 4 and 8 days). The dissolved acetylene concentration in the 2 L bottles was 2.2 mmol/L.
# (§3) After the set acetylene exposure time, culture was extracted, and triplicate bottles were started with 50 μM TCE and a pure oxygen headspace. The cultures were then monitored for propane (residual and added) and oxygen consumption, TCE degradation, carbon dioxide production, biomass production, and pH change.
# [2] = test system: Mycobacterium austroafricanum JOB-5 (JOB-5) and a mixed culture, named COMET1; assay: Soil columns with contaminated site soil and groundwater, flow through mode, acetylene-containing groundwater; parameters: species or system Mycobacterium austroafricanum JOB-5 and COMET1 mixed culture; conditions: soil columns, propane fed and acetylene inhibited, two three-hour pulses per day at 0.2 mL/min
# Protocol: Groundwater was pumped at a 2-Day HRT (0.2 mL/min) from six pumps programmed to automatically turn on and turn off to deliver groundwater of varying chemistries to the soil columns. For the Propane-Fed (pumps 2-3) and the Propane-Fed and Acetylene-Inhibited treatments (pumps 4-6) which had multiple pumps feeding into one line PVC plastic check valves were installed at line splitting locations to avoid backflow to other feeder bags when pumps automatically started or stopped pumping according to the schedule presented in FIG. 5.
# Acetylene or propane from a gas tank was bubbled into groundwater in a closed container in the lab. That groundwater was then pumped from closed container to a sealable Tedlar bag. The Tedlar bag was then connected to the pump which was controlled by a timer to deliver two three-hour pulses of acetylene containing groundwater at 0.2 mL/min per day. The pump effectively serves as a seal for the Tedlar bag as the tubing is pinched at one location to create suction.
# For propane, 0.5 L of propane was bubbled through 10 L water for at least four hours. That propane-containing water was then pumped into a Tedlar bag. For the treatments which received propane-containing water, the water was pumped into the columns at 0.2 mL/min to 6 hrs/day (two three-hour pulses). For acetylene, 0.5 L of acetylene was bubbled through 10 L water for at least four hours. That acetylene-containing water was then pumped into a Tedlar bag. For the treatments which received acetylene-containing water, the water was pumped into the columns at 0.2 mL/min to 6 hrs/day (two three-hour pulses) […]
# Phase I involves bioaugmentation in soil columns in batch mode. […] Batches were continued until either propane was not detected in the groundwater or propane consumption slowed. […]
# Phase II involves flow through mode. […] These gas syringes were then analyzed for TCE, propane, and acetylene via gas chromatography with flame ionization detection (GC-FID) and for oxygen and carbon dioxide via assessment of a thermal conductivity detector (TCD). […]
# [3] = test system: soil-derived propane-consuming mixed culture; assay: TCE cometabolism and biomass production of mixed culture after acetylene exposure; format: cell-based, mixed culture enriched from an uncontaminated soil; conditions: for TCE consumption rate: 5% v/v acetylene, 50 μM TCE
# Description: as §1, §2, §3
# [4] = as acetylene exposure times increased (1-8 days), 5% v/v
structure (smiles),measurement,setting,value
C#C [acetylene],rate of TCE degradation,[1]; [4],decreased
same,rate of biomass production (optical density),[1]; [4],decreased
same,TCE consumption rate,[1]; day 1 of acetylene exposure,0.42 μmol TCE/(L day)
same,TCE consumption rate,[1]; day 2 of acetylene exposure,0.63 μmol TCE/(L day)
same,TCE consumption rate,[1]; day 4 of acetylene exposure,0.36 μmol TCE/(L day)
same,TCE consumption rate,[1]; day 8 of acetylene exposure,0.07 μmol TCE/(L day)
same,TCE degradation (cumulative TCE removal),[2],slowed
same,biomass production (total organic carbon as proxy),[2],slowed
same,propane consumption (cumulative),[2],slowed
same,rate of TCE degradation,[3]; [4],decreased
same,rate of biomass production (optical density),[3]; [4],decreased
same,TCE consumption rate,[3]; day 1 of acetylene exposure,0.45 μmol TCE/(L day)
same,TCE consumption rate,[3]; day 2 of acetylene exposure,0.54 μmol TCE/(L day)
same,TCE consumption rate,[3]; day 4 of acetylene exposure,0.52 μmol TCE/(L day)
same,TCE consumption rate,[3]; day 8 of acetylene exposure,0.25 μmol TCE/(L day)
